Source: patent publication US20220119825A1, “SCALABLE PEPTIDE-GPCR INT[…] SYSTEMS” (THE TRUSTEES OF COLUMBIA UNIVERSITY IN THE CITY OF NEW YORK, priority 2019, published 2022)
Like-named read-outs stand apart in the source and are kept apart here. Ends that are not written are not given here. Peptide text beside a SMILES is read from it.

B1: She. Ste2: genome-mined mating GPCR activated by near-cognate peptide with two additional N-terminal residues (protein)
chain: MKPAAGPASSPFDPFNQTFYLTGPDNTTVPVSVPQVDYIWHYIIGTSINYGSQIGACLLMLLVMLTLTSKSRFSRAATLINVASLLIGVIRCVLLAVYFTSSLTELYALFVGDYSQVRRSDLCVSAVATFFSLPQLVLIEAALFLQAYSMIKMWPSLWRAVVLAMSVVVAVCAIGFKFASVVMRMRSTLTLDDSLDFWLVEVDLAFTATTIFWFCFIYIIRLVIHMWEYRSILPPMGSVSAMEVLVMTNGALMLVPVIFAAIEINGLSSFESGSLVHTSVIVLLPLGSLIAQAMTRPDGYVQRTNTSGASGASGAHPGRNGSGHGGHGGAYSRAMTNTLNTLDTLDTVDSKTSIMHHHHHHHRNHSNGMSKTKANSGTWSHASDANSTNAMISGGIATQVRIQANQSTLGNTGMSGGSGAPNSHTRNNSLAAMEPVEKQLHDIDATPLSASDCRVWVDREVEVRRDMV

How the values were obtained:
[1] = system: Ste2-like fungal mating GPCRs expressed in S. cerevisiae; assay: GPCR on-off activity and dose response assay (FUS1 promoter coRFP fluorescent reporter, strain JTy014, synthetic peptide ligand); format: cell-based, Ascomycete fungi (expressed in S. cerevisiae); design: EC50: unit: log10 M; settings: for Hill Slope: Hill slope of 4-parameter fit; for Bttm: bottom of 4-parameter fit of the fluorescence dose response curve (basal activation); for Fold Change: fold-change activation from Top and Bttm of the fit; for Span: span of 4-parameter fit of the fluorescence dose response curve; for Top: top of 4-parameter fit of the fluorescence dose response curve (maximal activation)
Procedure: GPCR on-off activity and dose response assay. GPCR activity and response to increasing dosage of synthetic peptide ligand was measured in strain JTy014 using the genomically integrated FUS1-promoter controlled coRFP as a fluorescent reporter. JTy014 strains carrying the appropriate GPCR expression plasmid were assayed in 96-well microtiter plates using 200 μl total volume, cultured at 30° C. and 800 RPM. Cells were seeded at an A600 of 0.3 (Note: all herein reported cell density values are based on A600 measurements in 96-well plates of a 200 μl volume of cultures with a path length of ˜0.3 cm performed in an Infinite M200 plate reader from Tecan) in SC media lacking uracil (selective component). All measurements were performed in triplicates. RFP fluorescence (excitation: 588 nm, emission: 620 nm) and culture turbidity (A600) were measured after 8 hours using an Infinite M200 plate reader (Tecan). Since the optical density values were outside the linear range of the photodetector, all optical density values were first corrected using the following formula to give true optical density values: […]
where Ameas is the measured optical density, Asat is the saturation value of the photodetector and k is the true optical density at which the detector reaches half saturation of the measured optical density^36. Dose-response was measured at different concentrations (11 five-fold dilutions in H2O starting at 40 μM peptide, H2O was used as “no peptide” control) of the appropriate synthetic peptide ligand. All fluorescence values were normalized by the A600, and plotted against the log(10)-converted peptide concentrations. Data were fit to a four-parameter non-linear regression model using Prism (GraphPad) in order to extract GPCR-specific values for basal activation, maximal activation, EC50 and the Hill coefficient. Fold-activation was calculated for each GPCR as the maximum A600-normalized fluorescence of peptide-treated cells divided by the A600 normalized fluorescence value of water-treated cells.

[2] = target: T1, Hj.Ste2, Ste2-like mating GPCR of Hypocrea jecorina (Hypocrea jecorina); assay: cell-based or functional assay
T1 chain: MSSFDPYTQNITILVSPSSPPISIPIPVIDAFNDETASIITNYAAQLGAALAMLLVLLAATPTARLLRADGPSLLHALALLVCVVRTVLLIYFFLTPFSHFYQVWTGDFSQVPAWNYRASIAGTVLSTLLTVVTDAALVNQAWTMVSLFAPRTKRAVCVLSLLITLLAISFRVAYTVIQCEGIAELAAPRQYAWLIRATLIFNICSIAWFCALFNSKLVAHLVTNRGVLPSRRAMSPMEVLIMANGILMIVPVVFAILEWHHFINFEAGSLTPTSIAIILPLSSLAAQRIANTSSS

[3] = target: T2, Bb.Ste2, Ste2-like mating GPCR of Beauvaria bassiana (Beauvaria bassiana); assay: cell-based or functional assay
T2 chain: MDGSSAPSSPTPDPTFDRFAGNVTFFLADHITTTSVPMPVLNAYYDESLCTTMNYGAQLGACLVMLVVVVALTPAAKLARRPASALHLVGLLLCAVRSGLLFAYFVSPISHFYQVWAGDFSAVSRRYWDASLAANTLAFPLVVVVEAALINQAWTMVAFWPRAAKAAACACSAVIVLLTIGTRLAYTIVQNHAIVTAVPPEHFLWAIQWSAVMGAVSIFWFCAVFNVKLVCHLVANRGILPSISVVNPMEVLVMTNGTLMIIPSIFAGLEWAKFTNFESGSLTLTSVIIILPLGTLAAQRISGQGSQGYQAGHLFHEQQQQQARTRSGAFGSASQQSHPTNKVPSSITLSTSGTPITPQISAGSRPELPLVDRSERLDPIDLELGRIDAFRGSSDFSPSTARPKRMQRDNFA

[4] = target: T3, Bc.Ste2, Ste2-like mating GPCR of Botrytis cinerea (Botrytis cinerea); assay: cell-based or functional assay
T3 chain: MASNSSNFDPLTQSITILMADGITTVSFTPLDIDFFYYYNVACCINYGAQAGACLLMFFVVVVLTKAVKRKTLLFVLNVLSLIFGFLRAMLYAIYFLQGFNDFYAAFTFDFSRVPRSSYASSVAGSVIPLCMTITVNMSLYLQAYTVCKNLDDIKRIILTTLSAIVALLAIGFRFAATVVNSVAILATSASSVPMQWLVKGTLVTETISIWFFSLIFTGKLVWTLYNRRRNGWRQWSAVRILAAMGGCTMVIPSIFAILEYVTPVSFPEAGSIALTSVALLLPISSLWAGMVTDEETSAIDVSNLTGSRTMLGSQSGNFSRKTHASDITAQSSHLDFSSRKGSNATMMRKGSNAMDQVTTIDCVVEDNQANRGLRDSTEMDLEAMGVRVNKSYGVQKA

[5] = target: T4, Le.Ste2, Ste2-like mating GPCR of Lodderomyces elongisporous (Lodderomyces elongisporous); assay: cell-based or functional assay
T4 chain: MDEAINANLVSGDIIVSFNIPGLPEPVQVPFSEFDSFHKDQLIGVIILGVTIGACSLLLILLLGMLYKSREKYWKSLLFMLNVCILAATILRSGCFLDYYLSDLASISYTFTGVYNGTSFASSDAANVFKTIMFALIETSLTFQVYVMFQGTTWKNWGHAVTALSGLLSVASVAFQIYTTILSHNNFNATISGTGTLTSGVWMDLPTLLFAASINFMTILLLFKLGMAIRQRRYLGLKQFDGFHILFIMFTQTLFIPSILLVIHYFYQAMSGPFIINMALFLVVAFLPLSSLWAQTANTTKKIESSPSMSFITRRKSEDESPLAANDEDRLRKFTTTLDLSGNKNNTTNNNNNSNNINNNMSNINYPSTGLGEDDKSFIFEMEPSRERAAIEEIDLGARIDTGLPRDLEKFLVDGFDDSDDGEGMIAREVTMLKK

[6] = peptide/GPCR pair, synthetic cognate peptide, fluorescence read-out, 4-parameter fit of dose response curves (FIG. 6), values given as negative (log) numbers

Molecule | Hill Slope [1] | Bttm [1] | Fold Change [1] | EC50 [1, 6] | Span [1] | Top [1] | other results
CC[C@H](C)[C@H](NC(=O)[C@H](Cc1c[nH]c2ccccc12)NC(=O)CN)C(=O)NCC(=O)N[C@@H](CCCNC(=N)N)C(=O)N[C@@H](CS)C(=O)NCC(=O)N[C@H](C(=O)N1CCC[C@H]1C(=O)NCC(=O)N[C@@H](CO)C(=O)N[C@@H](CO)C(=O)N[C@@H](CS)C(=O)O)C(C)C [Bm] (H-GWIGRCGVPGSSC-OH; N-terminus and C-terminus assumed) | 1.2 | 30.3 | 5.2 | −6.7 | 128.4 | 158.8 | –
H-WHWVRLRKGQGLF-OH [Cg] | 2.4 | 30.5 | 7.0 | −5.9 | 183.0 | 213.6 | –
H-KWGWLRFFPGEPFV-OH [Cau] | 0.8 | 50.6 | 6.7 | −8.1 | 286.3 | 336.9 | –
H-KFKFRLTRYGWFSPN-OH [Ct] | 1.2 | 32.0 | 5.2 | −8.2 | 134.6 | 166.7 | –
H-WSWITLRPGQPIF-OH [Kl] | 0.8 | 37.2 | 6.0 | −7.3 | 185.9 | 223.1 | –
S. cerevisiae Ste2: natural S. cerevisiae mating GPCR; value is its sensitivity to its cognate peptide ligand | – | – | – | – | – | – | EC50 ([1]; cognate synthetic peptide, fluorescence/A600 after 8 hours, four-parameter fit, read-out: EC50 (sensitivity of the GPCR for its cognate ligand)): 1.25 nM
H-NWHWLRLDPGQPLY-OH [Sca] | 0.7 | 24.3 | 6.4 | −8.1 | 131.1 | 155.4 | –
FSWNYRLKWQPIS [Cn] | 1.1 | 29.7 | 5.1 | −7.4 | 122.5 | 152.2 | –
H-KPHWTTYGYYEPQ-OH [Cp] | 0.8 | 36.2 | 7.0 | −8.5 | 217.8 | 254.0 | –
NCCCC[C@H](NC(=O)[C@H](Cc1c[nH]c2ccccc12)NC(=O)[C@H](Cc1c[nH]c2ccccc12)NC(=O)[C@H](CS)NC(=O)[C@@H](N)Cc1c[nH]c2ccccc12)C(=O)NCC(=O)N[C@@H](CCC(N)=O)C(=O)N1CCC[C@H]1C(=O)N[C@@H](CS)C(=O)N[C@@H](Cc1c[nH]c2ccccc12)C(=O)O [Fg] (H-WCWWKGQPCW-OH) | 1.3 | 29.2 | 8.0 | −7.1 | 203.0 | 232.2 | –
WCYRIGEPCW (modifications not checked) [Hj peptide ligand #1 (Table 3: …)] | – | – | – | – | – | – | Bttm (FUS1p-RFP reporter) (fluorescence/A600 (not given)) [2]: 53; EC50 (FUS1p-RFP reporter) (log10 M (not given)) [2]: -7.8; Fold Change (FUS1p-RFP reporter) [2]: 8.1 fold; Span (FUS1p-RFP reporter) (fluorescence/A600 (not given)) [2]: 376; Top (FUS1p-RFP reporter) (fluorescence/A600 (not given)) [2]: 430
WCMRPGQPCW [Bb peptide ligand #1 WCMRPGQPCW] | – | – | – | – | – | – | Bttm (FUS1p-RFP reporter) [3]: 25.2 fluorescence/A600 (not printed); EC50 (FUS1p-RFP reporter) [3]: -8.5 log10 M (not printed); Fold Change (FUS1p-RFP reporter) [3]: 9.7 fold; Span (FUS1p-RFP reporter) [3]: 219 fluorescence/A600 (not printed); Top (FUS1p-RFP reporter) [3]: 244 fluorescence/A600 (not printed)
WCGRPGQPC [Bc peptide ligand #1 WCGRPGQPC] | – | – | – | – | – | – | Bttm (FUS1p-RFP reporter) [4]: 28.6 fluorescence/A600 (not printed); EC50 (FUS1p-RFP reporter) [4]: -8.1 log10 M (not printed); Fold Change (FUS1p-RFP reporter) [4]: 12.3 fold; Span (FUS1p-RFP reporter) [4]: 323 fluorescence/A600 (not printed); Top (FUS1p-RFP reporter) [4]: 352 fluorescence/A600 (not printed)
WMWTRYGRFSPV [Le peptide ligand #1 WMWTRYGRFSPV] | – | – | – | – | – | – | Bttm (FUS1p-RFP reporter) [5]: 22.9 fluorescence/A600 (not printed); EC50 (FUS1p-RFP reporter) [5]: -7.7 log10 M (not printed); Fold Change (FUS1p-RFP reporter) [5]: 18 fold; Span (FUS1p-RFP reporter) [5]: 390 fluorescence/A600 (not printed); Top (FUS1p-RFP reporter) [5]: 412 fluorescence/A600 (not printed)
B1 | – | – | – | – | – | – | activation by alternative near-cognate peptide ligand candidates ([1]; 40 μM synthetic peptide ligand, 8 hours): can be activated
